{
  "source": "patent US20210220356A1",
  "about": "“DIHYDROPYRIMIDINE DERIVATIVES AND USES THEREOF IN THE TREATMENT OF HBV INFECTION OR OF HBV-INDUCED DISEASES” (Janssen Sciences Ireland Unlimited Company, priority 2018, published 2021)",
  "key": {"[1]": {"tested_on": "HBV", "test": "HBV inhibitory activity in HepG2.2.15 cells (HBV DNA in culture medium by q-PCR)", "assay_type": "cell-based", "conditions": "HepG2.2.15 cells, 40,000 cells/well, 6 days of compound treatment, HBV DNA in culture medium by q-PCR, highest concentration 10 uM, read-out: EC50", "description": "(§1) • HepG2.2.15 (the HepG2.2.15 cell line can be produced by transfection of the HepG2 cell line as described in Sells, Chen, and Acs 1987 (Proc. Natl. Acad. Sci. USA 84: 1005-1009), and the HepG2 cell line is available from ATCC® under number HB-8065™)\n(§2) Seed the cell HepG2.2.15 cells into 96-well plate in 2% FBS culture medium at the density of 40,000 cells/well and 5,000 cells/well for HBV inhibitory activity and cytotoxicity determination, respectively. After seeding, incubate the cell plates at 37° C., 5% CO2 overnight. The next day, medium containing compounds is added to the cell to treat the cells for 6 days with medium refreshed once in the middle of the treatment. 8 dose points with 3 folds dilution of each compound were adopted and the highest concentration of the compounds is 10 uM and 100 uM for HBV inhibitory activity and cytotoxicity determination, respectively.\nThe HBV DAN change in the cell culture medium induced by the compounds is measured by q-PCR method. Briefly, the HBV DNA in the culture medium is extracted using QIAamp 96 DNA Blood Kit according to the manual and then quantified by q-PCR using the primers and probe in the table below.\n(§3) EC50 and CC50 values are calculated by the GRAPHPAD PRISM software."}, "[2]": {"tested_on": "HepG2.2.15 cells", "test": "Cytotoxicity determination in HepG2.2.15 cells (CCK-8)", "assay_type": "cell-based", "conditions": "HepG2.2.15 cells, 5,000 cells/well, 6 days of compound treatment, CCK-8 absorbance 450 nm, highest concentration 100 uM", "description": "as §1, §2\nAfter 6 days of compounds treatment, add 20 μl CCK-8 reagents to each well of cytotoxicity assay plates, incubate the plate at 37° C., 5% CO2 for 2.5 h and measure the absorbance at 450 nm wavelength, at the same time read the absorbance at 630 nm wavelength as reference.\nas §3"}},
  "note": "Like-named read-outs stand apart in the source and are kept apart here.",
  "data": [
    {"smiles": "COC(=O)C1=C(C2CCc3nn(CCC(=O)O)cc3C2)NC(c2nccs2)=NC1c1ccc(F)cc1Br", "note": "(single isomer, unassigned) [Compound 48b, 3-(5-(6-(2-Bromo-4-fluorophenyl)-5-(methoxycarbonyl)-2-(thiazol-2-yl)-3,6-dihydropyrimidin-4-yl)-4,5,6,7-tetrahydro-2H-indazol-2-yl)propanoic acid]", "values": [
      {"measurement": "EC50", "setting": "[1]", "result": 0.6, "unit": "µM"},
      {"measurement": "CC50", "setting": "[2]", "result": 80, "unit": "µM"}
    ]},
    {"smiles": "COC(=O)C1=C(C2CCc3nn(CCC(=O)O)cc3C2)NC(c2nccs2)=NC1c1ccc(F)cc1Br", "note": "(single isomer, unassigned) [Compound 48d, 3-(5-(6-(2-Bromo-4-fluorophenyl)-5-(methoxycarbonyl)-2-(thiazol-2-yl)-3,6-dihydropyrimidin-4-yl)-4,5,6,7-tetrahydro-2H-indazol-2-yl)propanoic acid]", "values": [
      {"measurement": "EC50", "setting": "[1]", "result": 0.03, "unit": "µM"},
      {"measurement": "CC50", "setting": "[2]", "result": 34.3, "unit": "µM"}
    ]},
    {"smiles": "CCOC(=O)C1=C(C2CCc3nn(CC(=O)O)cc3C2)NC(c2nccs2)=NC1c1ccc(F)c(F)c1Cl", "note": "(single isomer, unassigned) [Compound 49c]", "values": [
      {"measurement": "EC50", "setting": "[1]", "result": 0.11, "unit": "µM"},
      {"measurement": "CC50", "setting": "[2]", "result": 25.4, "unit": "µM"}
    ]},
    {"smiles": "CCOC(=O)C1=C(C2CCc3nn(CCCC(=O)O)cc3C2)NC(c2nccs2)=NC1c1ccc(F)c(F)c1Cl", "note": "(single isomer, unassigned) [Compound 50c, 4-(5-(6-(2-Chloro-3,4-difluorophenyl)-5-(ethoxycarbonyl)-2-(thiazol-2-yl)-3,6-dihydropyrimidin-4-yl)-4,5,6,7-tetrahydro-2H-indazol-2-yl)butanoic acid]", "values": [
      {"measurement": "EC50", "setting": "[1]", "result": "< 0.0046", "unit": "µM"},
      {"measurement": "CC50", "setting": "[2]", "result": 11.9, "unit": "µM"}
    ]},
    {"smiles": "CCOC(=O)C1=C(C2CCc3nn(C(C)CC(=O)O)cc3C2)NC(c2nccs2)=NC1c1ccc(F)c(F)c1Cl", "note": "(single isomer, unassigned) [Compound 51c, 3-(5-(6-(2-chloro-3,4-difluorophenyl)-5-(ethoxycarbonyl)-2-(thiazol-2-yl)-3,6-dihydropyrimidin-4-yl)-4,5,6,7-tetrahydro-2H-indazol-2-yl)butanoic acid]", "values": [
      {"measurement": "EC50", "setting": "[1]", "result": 0.0097, "unit": "µM"},
      {"measurement": "CC50", "setting": "[2]", "result": 8.6, "unit": "µM"}
    ]},
    {"smiles": "CCOC(=O)C1=C(C2CCc3nn(C(C)CC(=O)O)cc3C2)NC(c2nccs2)=NC1c1ccc(F)c(F)c1Cl", "note": "(single isomer, unassigned) [Compound 52d, 3-(5-(6-(2-chloro-3,4-difluorophenyl)-5-(ethoxycarbonyl)-2-(thiazol-2-yl)-3,6-dihydropyrimidin-4-yl)-4,5,6,7-tetrahydro-2H-indazol-2-yl)butanoic acid]", "values": [
      {"measurement": "EC50", "setting": "[1]", "result": 0.0124, "unit": "µM"},
      {"measurement": "CC50", "setting": "[2]", "result": 10.5, "unit": "µM"}
    ]},
    {"smiles": "CCOC(=O)C1=C(C2CCc3nn(CC(C)(C)C(=O)O)cc3C2)NC(c2nccs2)=NC1c1ccc(F)c(F)c1Cl", "note": "(single isomer, unassigned) [Compound 53b, 3-(5-(6-(2-Chloro-3,4-difluorophenyl)-5-(ethoxycarbonyl)-2-(thiazol-2-yl)-3,6-dihydropyrimidin-4-yl)-4,5,6,7-tetrahydro-2H-indazol-2-yl)-2,2-dimethylpropanoic acid]", "values": [
      {"measurement": "EC50", "setting": "[1]", "result": 0.104, "unit": "µM"},
      {"measurement": "CC50", "setting": "[2]", "result": 11.9, "unit": "µM"}
    ]},
    {"smiles": "CCOC(=O)C1=C(C2CCc3nn(CC(C)(C)C(=O)O)cc3C2)NC(c2nccs2)=NC1c1ccc(F)c(F)c1Cl", "note": "(single isomer, unassigned) [Compound 53c, 3-(5-(6-(2-Chloro-3,4-difluorophenyl)-5-(ethoxycarbonyl)-2-(thiazol-2-yl)-3,6-dihydropyrimidin-4-yl)-4,5,6,7-tetrahydro-2H-indazol-2-yl)-2,2-dimethylpropanoic acid]", "values": [
      {"measurement": "EC50", "setting": "[1]", "result": "< 0.0046", "unit": "µM"},
      {"measurement": "CC50", "setting": "[2]", "result": 10.9, "unit": "µM"}
    ]},
    {"smiles": "CCOC(=O)C1=C(C2CCc3oc(CCC(=O)O)nc3C2)NC(c2nccs2)=NC1c1ccc(F)c(F)c1Cl", "note": "(single isomer, unassigned) [Compound 57f, 3-(5-(6-(2-Chloro-3,4-difluorophenyl)-5-(ethoxycarbonyl)-2-(thiazol-2-yl)-3,6-dihydropyrimidin-4-yl)-4,5,6,7-tetrahydrobenzo[d]oxazol-2-yl)propanoic acid]", "values": [
      {"measurement": "EC50", "setting": "[1]", "result": 0.0908, "unit": "µM"},
      {"measurement": "CC50", "setting": "[2]", "result": 12.6, "unit": "µM"}
    ]},
    {"smiles": "CCOC(=O)C1=C(C2CCc3nc(CCC(=O)O)oc3C2)NC(c2nccs2)=NC1c1ccc(F)c(F)c1Cl", "note": "(single isomer, unassigned) [Compound 58d, 3-(6-(6-(2-Chloro-3,4-difluorophenyl)-5-(ethoxycarbonyl)-2-(thiazol-2-yl)-3,6-dihydropyrimidin-4-yl)-4,5,6,7-tetrahydrobenzo[d]oxazol-2-yl)propanoic acid]", "values": [
      {"measurement": "EC50", "setting": "[1]", "result": 0.0092, "unit": "µM"},
      {"measurement": "CC50", "setting": "[2]", "result": 10.8, "unit": "µM"}
    ]},
    {"smiles": "CCOC(=O)C1=C(C2CCc3sc(CCC(=O)O)nc3C2)NC(c2nccs2)=NC1c1ccc(F)c(F)c1Cl", "note": "(single isomer, unassigned) [Compound 59f, 3-(5-(6-(2-Chloro-3,4-difluorophenyl)-5-(ethoxycarbonyl)-2-(thiazol-2-yl)-3,6-dihydropyrimidin-4-yl)-4,5,6,7-tetrahydrobenzo[d]thiazol-2-yl)propanoic acid]", "values": [
      {"measurement": "EC50", "setting": "[1]", "result": 0.209, "unit": "µM"},
      {"measurement": "CC50", "setting": "[2]", "result": 5.8, "unit": "µM"}
    ]},
    {"smiles": "CCOC(=O)C1=C(C2CCc3nc(CCC(=O)O)sc3C2)NC(c2nccs2)=NC1c1ccc(F)c(F)c1Cl", "note": "(single isomer, unassigned) [Compound 60c, 3-(6-(6-(2-Chloro-3,4-difluorophenyl)-5-(ethoxycarbonyl)-2-(thiazol-2-yl)-3,6-dihydropyrimidin-4-yl)-4,5,6,7-tetrahydrobenzo[d]thiazol-2-yl)propanoic acid]", "values": [
      {"measurement": "EC50", "setting": "[1]", "result": 0.0135, "unit": "µM"},
      {"measurement": "CC50", "setting": "[2]", "result": 5.5, "unit": "µM"}
    ]},
    {"smiles": "CCOC(=O)C1=C(C2CCc3cn(CCC(=O)O)nc3C2)NC(c2nccs2)=NC1c1ccc(F)c(F)c1Cl", "note": "(single isomer, unassigned) [Compound 61a, 3-(6-(6-(2-Chloro-3,4-difluorophenyl)-5-(ethoxycarbonyl)-2-(thiazol-2-yl)-3,6-dihydropyrimidin-4-yl)-4,5,6,7-tetrahydro-2H-indazol-2-yl)propanoic acid]", "values": [
      {"measurement": "EC50", "setting": "[1]", "result": 0.0612, "unit": "µM"},
      {"measurement": "CC50", "setting": "[2]", "result": 4.8, "unit": "µM"}
    ]},
    {"smiles": "CCOC(=O)C1=C(C2CCc3cn(CCC(=O)O)nc3C2)NC(c2nccs2)=NC1c1ccc(F)c(F)c1Cl", "note": "(single isomer, unassigned) [Compound 61c, 3-(6-(6-(2-Chloro-3,4-difluorophenyl)-5-(ethoxycarbonyl)-2-(thiazol-2-yl)-3,6-dihydropyrimidin-4-yl)-4,5,6,7-tetrahydro-2H-indazol-2-yl)propanoic acid]", "values": [
      {"measurement": "EC50", "setting": "[1]", "result": 0.125, "unit": "µM"},
      {"measurement": "CC50", "setting": "[2]", "result": 29, "unit": "µM"}
    ]},
    {"smiles": "COC(=O)C1=C(C2CCc3[nH]ncc3C2)NC(c2nccs2)=NC1c1ccc(F)c(F)c1Cl", "note": "(single isomer, unassigned) [Compound 65b, Methyl 4-(2-chloro-3,4-difluorophenyl)-6-(4,5,6,7-tetrahydro-1H-indazol-5-yl)-2-(thiazol-2-yl)-1,4-dihydropyrimidine-5-carboxylate]", "values": [
      {"measurement": "EC50", "setting": "[1]", "result": 2.67, "unit": "µM"},
      {"measurement": "CC50", "setting": "[2]", "result": 6.3, "unit": "µM"}
    ]},
    {"smiles": "COC(=O)C1=C(C2CCc3nc([C@H]4C[C@H](C(=O)O)C4)sc3C2)NC(c2nccs2)=NC1c1ccc(F)c(F)c1Cl", "note": "(single isomer, unassigned) [Compound 68b, (trans)-3-(-6-(-6-(2-chloro-3,4-difluorophenyl)-5-(methoxycarbonyl)-2-(thiazol-2-yl)-3,6-dihydropyrimidin-4-yl)-4,5,6,7-tetrahydrobenzo[d]thiazol-2-yl)cyclobutanecarboxylic acid]", "values": [
      {"measurement": "EC50", "setting": "[1]; Hepatitis B virus, HepG2.2.15, 144 h", "result": 0.009, "unit": "µM"},
      {"measurement": "CC50", "setting": "[2]", "result": 8.3, "unit": "µM"}
    ]},
    {"smiles": "COC(=O)C1=C(C2CCc3nc([C@H]4C[C@H](C(=O)O)C4)sc3C2)NC(c2nccs2)=NC1c1ccc(F)c(F)c1Cl", "note": "(single isomer, unassigned) [Compound 68c, (trans)-3-(6-(-6-(2-chloro-3,4-difluorophenyl)-5-(methoxycarbonyl)-2-(thiazol-2-yl)-3,6-dihydropyrimidin-4-yl)-4,5,6,7-tetrahydrobenzo[d]thiazol-2-yl)cyclobutanecarboxylic acid]", "values": [
      {"measurement": "EC50", "setting": "[1]", "result": 0.00645, "unit": "µM"},
      {"measurement": "CC50", "setting": "[2]", "result": 3.6, "unit": "µM"}
    ]},
    {"smiles": "COC(=O)C1=C(C2CCc3nn(CCC(=O)O)cc3C2)NC(c2nccs2)=NC1c1ccc(F)c(F)c1Cl", "note": "(single isomer, unassigned) [Compound 70d, 3-(-5-(6-(2-chloro-3,4-difluorophenyl)-5-(methoxycarbonyl)-2-(thiazol-2-yl)-3,6-dihydropyrimidin-4-yl)-4,5,6,7-tetrahydro-2H-indazol-2-yl)propanoic acid]", "values": [
      {"measurement": "EC50", "setting": "[1]", "result": 0.00803, "unit": "µM"},
      {"measurement": "CC50", "setting": "[2]", "result": 24.3, "unit": "µM"}
    ]},
    {"smiles": "COC(=O)C1=C(C2CCc3nc([C@H]4C[C@H](C(=O)O)C4)oc3C2)NC(c2nccs2)=NC1c1ccc(F)c(F)c1Cl", "note": "(single isomer, unassigned) [Compound 72c, (trans)-3-(6-(6-(2-Chloro-3,4-difluorophenyl)-5-(methoxycarbonyl)-2-(thiazol-2-yl)-3,6-dihydropyrimidin-4-yl)-4,5,6,7-tetrahydrobenzo[d]oxazol-2-yl)cyclobutanecarboxylic acid]", "values": [
      {"measurement": "EC50", "setting": "[1]", "result": 0.0902, "unit": "µM"},
      {"measurement": "CC50", "setting": "[2]", "result": 8.7, "unit": "µM"}
    ]}
  ]
}
